From publication PMC3356581 (Bioorganic & medicinal chemistry, 2012)

Experiments:
5-HT2A receptor = 5-HT2A receptor (Homo sapiens, UniProt P28223); experiment: NIMH-PDSP radioligand binding, 5-HT2A
5-HT1A receptor [1] = molecular target: T1, 5-HT1A receptor (Homo sapiens, UniProt P08908); experiment: NIMH-PDSP radioligand binding, 5-HT1A
T1 sequence (P08908 1-422): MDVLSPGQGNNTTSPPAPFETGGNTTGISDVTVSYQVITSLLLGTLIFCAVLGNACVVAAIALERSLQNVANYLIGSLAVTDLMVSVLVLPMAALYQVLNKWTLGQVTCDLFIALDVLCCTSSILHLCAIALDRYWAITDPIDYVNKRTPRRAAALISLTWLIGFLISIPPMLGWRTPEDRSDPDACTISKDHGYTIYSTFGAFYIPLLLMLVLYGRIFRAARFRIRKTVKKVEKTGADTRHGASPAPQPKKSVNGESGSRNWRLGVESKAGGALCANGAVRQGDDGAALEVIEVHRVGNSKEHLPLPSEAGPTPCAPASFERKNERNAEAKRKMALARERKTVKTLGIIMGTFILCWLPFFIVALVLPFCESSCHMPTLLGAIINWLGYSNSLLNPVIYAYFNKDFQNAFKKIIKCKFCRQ

5-HT2C receptor [2] = molecular target: T2, 5-HT2C receptor (Homo sapiens, UniProt P28335); experiment: NIMH-PDSP radioligand binding, 5-HT2C
T2 sequence (P28335 33-458): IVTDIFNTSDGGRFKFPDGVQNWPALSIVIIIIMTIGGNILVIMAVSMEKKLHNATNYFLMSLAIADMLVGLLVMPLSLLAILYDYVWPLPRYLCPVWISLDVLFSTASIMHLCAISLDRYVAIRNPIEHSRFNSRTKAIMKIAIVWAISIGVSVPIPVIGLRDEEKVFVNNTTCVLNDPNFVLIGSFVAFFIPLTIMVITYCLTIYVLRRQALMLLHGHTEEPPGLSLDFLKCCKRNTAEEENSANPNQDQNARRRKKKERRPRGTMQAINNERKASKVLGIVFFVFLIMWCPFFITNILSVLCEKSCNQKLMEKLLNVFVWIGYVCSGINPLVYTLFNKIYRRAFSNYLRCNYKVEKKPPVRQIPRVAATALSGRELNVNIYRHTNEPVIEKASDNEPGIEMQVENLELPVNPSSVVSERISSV

D4 receptor [3] = molecular target: T3, D4 receptor (Homo sapiens, UniProt P21917); experiment: NIMH-PDSP radioligand binding, D4
T3 sequence (P21917 1-419): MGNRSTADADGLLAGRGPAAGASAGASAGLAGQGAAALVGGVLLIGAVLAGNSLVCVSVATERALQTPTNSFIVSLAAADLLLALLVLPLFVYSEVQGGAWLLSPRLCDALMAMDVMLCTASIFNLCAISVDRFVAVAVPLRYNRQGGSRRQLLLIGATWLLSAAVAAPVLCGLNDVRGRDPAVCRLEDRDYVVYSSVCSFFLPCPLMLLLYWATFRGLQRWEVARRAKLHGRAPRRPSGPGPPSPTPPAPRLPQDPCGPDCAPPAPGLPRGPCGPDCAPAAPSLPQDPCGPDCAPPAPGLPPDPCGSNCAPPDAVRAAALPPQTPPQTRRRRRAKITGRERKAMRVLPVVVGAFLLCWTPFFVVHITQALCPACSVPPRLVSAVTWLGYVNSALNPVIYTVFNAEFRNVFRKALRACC

Histamine H1 receptor = Histamine H1 receptor (Homo sapiens, UniProt P35367); experiment: NIMH-PDSP radioligand binding, H1
catalepsy = details: in vivo studies, five times the ED50 dose; cited from earlier work
D2 receptor = D2 receptor (Homo sapiens, UniProt P14416); experiment: NIMH-PDSP radioligand binding, D2
D4 receptor [4] = molecular target: T3, D4 receptor; details: read-out: Binding data, Ki ± SEM, previously reported; cited from earlier work
5-HT1A receptor [5] = molecular target: T1, 5-HT1A receptor; details: read-out: Binding data, Ki ± SEM, previously reported; cited from earlier work
5-HT2C receptor [6] = molecular target: T2, 5-HT2C receptor; details: read-out: Binding data, Ki ± SEM, previously reported; cited from earlier work

5-HT2A receptor, sequence (P28223 whole entry): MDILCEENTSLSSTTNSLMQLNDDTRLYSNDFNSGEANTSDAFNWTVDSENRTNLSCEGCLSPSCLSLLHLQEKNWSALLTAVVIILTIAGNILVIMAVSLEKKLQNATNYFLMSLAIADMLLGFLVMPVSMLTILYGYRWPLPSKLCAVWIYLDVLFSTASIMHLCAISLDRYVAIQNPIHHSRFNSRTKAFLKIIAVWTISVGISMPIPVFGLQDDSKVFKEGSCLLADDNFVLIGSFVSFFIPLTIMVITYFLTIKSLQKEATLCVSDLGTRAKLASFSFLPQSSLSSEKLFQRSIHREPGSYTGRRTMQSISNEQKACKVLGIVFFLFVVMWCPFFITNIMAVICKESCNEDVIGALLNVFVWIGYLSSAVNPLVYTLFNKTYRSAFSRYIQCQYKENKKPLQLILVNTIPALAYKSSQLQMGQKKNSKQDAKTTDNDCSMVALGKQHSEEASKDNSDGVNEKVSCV
D2 receptor, sequence (P14416 whole entry): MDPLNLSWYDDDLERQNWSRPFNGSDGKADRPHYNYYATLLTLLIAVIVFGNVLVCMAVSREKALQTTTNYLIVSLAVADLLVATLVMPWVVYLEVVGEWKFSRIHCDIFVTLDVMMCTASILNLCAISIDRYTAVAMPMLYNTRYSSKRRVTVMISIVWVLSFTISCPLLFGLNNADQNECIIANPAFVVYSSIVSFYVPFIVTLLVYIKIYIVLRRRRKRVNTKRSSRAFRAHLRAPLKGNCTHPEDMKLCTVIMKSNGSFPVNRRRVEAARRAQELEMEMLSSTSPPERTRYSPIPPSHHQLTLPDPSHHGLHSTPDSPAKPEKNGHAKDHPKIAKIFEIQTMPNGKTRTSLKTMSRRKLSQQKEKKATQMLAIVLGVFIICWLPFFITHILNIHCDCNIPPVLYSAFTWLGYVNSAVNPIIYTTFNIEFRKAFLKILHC
Histamine H1 receptor, sequence (P35367 whole entry, species assumed): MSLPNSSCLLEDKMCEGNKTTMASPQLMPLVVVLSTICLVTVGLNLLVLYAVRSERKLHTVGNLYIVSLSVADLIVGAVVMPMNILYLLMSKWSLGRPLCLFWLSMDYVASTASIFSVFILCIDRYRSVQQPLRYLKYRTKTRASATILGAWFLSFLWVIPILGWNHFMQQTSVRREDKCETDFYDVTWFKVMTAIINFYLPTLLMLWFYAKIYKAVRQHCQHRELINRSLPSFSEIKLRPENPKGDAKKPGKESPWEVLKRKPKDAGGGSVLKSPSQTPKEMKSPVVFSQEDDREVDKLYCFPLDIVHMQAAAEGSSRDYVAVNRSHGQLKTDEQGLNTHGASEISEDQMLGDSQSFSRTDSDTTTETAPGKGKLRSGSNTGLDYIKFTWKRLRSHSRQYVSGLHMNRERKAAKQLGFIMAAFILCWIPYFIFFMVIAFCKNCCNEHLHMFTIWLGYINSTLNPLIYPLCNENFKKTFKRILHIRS

Row | Structure (SMILES) | Binding data; Ki ± SEM, 5-HT2A (5-HT2A receptor) | Binding data; Ki ± SEM, 5-HT1A (5-HT1A receptor [1]) | Binding data; Ki ± SEM, 5-HT2C (5-HT2C receptor [2]) | Binding data; Ki ± SEM, D2 (D2 receptor) | also measured
1 | O=C(CCCCN1C2CCC1CC(O)(c1ccc(Cl)cc1)C2)c1nc2ccccc2s1 (stereo not shown) [Compound 18, 1-(Benzo[d]thiazol-2-yl)-5-(3-(4-chlorophenyl)-3-hydroxy-8-azabicyclo[3.2.1]octan-8-yl)pentan-1-one] | MP (Missed primary assay threshold of 50% inhibition) | MP (Missed primary assay threshold of 50% inhibition) | MP (Missed primary assay threshold of 50% inhibition) | – | –
2 | Clc1ccc(N2CCCN(Cc3nc4ccccc4s3)CC2)cc1 [Compound 15, 2-((4-(4-Chlorophenyl)-1,4-diazepan-1-yl)methyl)benzo [d]thiazole] | MP (Missed primary assay threshold of 50% inhibition) | MP (Missed primary assay threshold of 50% inhibition) | MP (Missed primary assay threshold of 50% inhibition) | – | Binding data; Ki ± SEM, D4 (D4 receptor [3]): MP (Missed primary assay threshold of 50% inhibition); Binding data; Ki ± SEM, H1 (Histamine H1 receptor): MP (Missed primary assay threshold of 50% inhibition)
3 | O=C(CCCN1CCCN(c2ccc(Cl)cc2)CC1)c1ccc(F)cc1 [Compound 2, 4-(4-(4-chlorophenyl)-1,4-diazepan-1-yl)-1-(4-fluorophenyl)butan-1-one] | – | – | – | – | catalepsy (catalepsy): without the associated catalepsy even at five times the ED50 dose
4 | O=C(CCCN1CCCN(c2ccc(Cl)cc2)CC1)c1nc2ccccc2s1 [Compound 17, 1-(Benzo[d]thiazol-2-yl)-4-(4-(4-chlorophenyl)-1,4-diazepan-1-yl)butan-1-one] | – | MP (Missed primary assay threshold of 50% inhibition) | MP (Missed primary assay threshold of 50% inhibition) | MP (Missed primary assay threshold of 50% inhibition) | –
5 | O=C(CCCN1CCN(c2ccc(Cl)cc2)CC1)c1ccc(F)cc1 [Compound 3] | – | – | – | – | Ki (D4 receptor [4]): 17.5 ± 2 nM; Ki (5-HT1A receptor [5]): 90.9 ± 21 nM; Ki (5-HT2C receptor [6]): 3.55 ± 0.943 µM
6 | Clc1ccc(N2CCCN(CCCc3nc4ccccc4s3)CC2)cc1 [Compound 14, 2-(3-(4-(4-Chlorophenyl)-1,4-diazepan-1-yl)propyl)benzo [d]thiazole] | – | – | – | MP (Missed primary assay threshold of 50% inhibition) | –
